For the experiment, the target named is human PCSK9 (Homo sapiens, UniProt Q8NBP7). Nature of the experiment: PCSK9 ligand binding assay (TR-FRET): interference with binding of human PCSK9 to human LDLR. The following applies: for IC50: Human PCSK9 Alexa Fluor 647 / Human LDLR extracellular domain-Europium Kryptate; for Max % inhibition: efficacy (Amax), 100% = 1 uM unlabeled human PCSK9, 0% = DMSO. The method, boiled down: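 Read-out was TR-FRET ratio (665 nm over 615 nm, 330 nm excitation) between Alexa Fluor 647-human PCSK9 (16 nM added) and Europium Kryptate-human LDLR ectodomain (4 nM added). Compound and PCSK9 were mixed 30 min before LDLR, then incubated 2 h. Inhibition was normalised to DMSO and unlabelled-PCSK9 controls, giving IC50 and Amax.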
Sequence of human PCSK9 (Q8NBP7 153-692): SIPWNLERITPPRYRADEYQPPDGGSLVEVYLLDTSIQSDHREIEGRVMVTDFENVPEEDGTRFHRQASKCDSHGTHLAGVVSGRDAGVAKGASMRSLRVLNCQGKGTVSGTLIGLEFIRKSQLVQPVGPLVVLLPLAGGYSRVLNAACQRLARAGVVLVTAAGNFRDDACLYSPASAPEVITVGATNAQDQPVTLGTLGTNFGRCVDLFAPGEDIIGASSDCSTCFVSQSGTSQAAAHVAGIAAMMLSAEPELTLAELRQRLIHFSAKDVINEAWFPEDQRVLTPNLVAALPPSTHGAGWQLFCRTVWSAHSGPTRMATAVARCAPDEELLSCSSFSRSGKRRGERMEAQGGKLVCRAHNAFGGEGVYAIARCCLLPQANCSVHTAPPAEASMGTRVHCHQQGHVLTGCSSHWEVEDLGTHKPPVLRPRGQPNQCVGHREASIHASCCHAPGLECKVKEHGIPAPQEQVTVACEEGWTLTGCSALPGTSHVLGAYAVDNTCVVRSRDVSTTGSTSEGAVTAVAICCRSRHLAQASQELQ
Sequence of human PCSK9 (Q8NBP7 31-152 partner limits assumed): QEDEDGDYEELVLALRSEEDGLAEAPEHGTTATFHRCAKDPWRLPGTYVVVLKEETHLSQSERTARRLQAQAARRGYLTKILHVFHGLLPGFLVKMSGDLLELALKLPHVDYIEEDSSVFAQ

For the molecule `C[C@H]1C(=O)N[C@@H](CO)C(=O)N[C@@]2(Cc3ccc(Cl)cc3)CCCN(C2)C(=O)[C@H](CC(F)(F)F)CC(=O)N1Cc1c(F)cc(Cl)cc1Oc1ccc(-c2cnc(CN(C)C3CCC3)n2C)cc1` [Compound 139, (3S, 7S, 10S, 13R)-6-(4-chloro-2-(4-(2-((cyclobutyl(methyl)amino)methyl)-1-methyl-1H-imidazol-5-yl)phenoxy)-6-fluorobenzyl)-13-(4-chlorobenzyl)-10-(hydroxymethyl)-7-methyl-3-(2,2,2-trifluoroethyl)-1,6,9,12-tetraazabicyclo[11.3.1]heptadecane-2,5,8,11-tetraone], the half-inhibitory concentration (IC50) came to 0.15 nM and the Max % inhibition is recorded as 113.0%.

Regarding `COC[C@@H]1NC(=O)[C@H](C)N(Cc2c(F)cc(Cl)cc2Oc2ccc(-c3cnc(CN(C)C)n3C)cc2)C(=O)C[C@@H](C2CCC2)C(=O)N2CCC[C@@](Cc3ccc(Cl)cc3)(C2)N(C)C1=O` [Compound 140, (3S, 7S, 10S, 13R)-6-(4-chloro-2-(4-(2-((dimethylamino)methyl)-1-methyl-1H-imidazol-5-yl)phenoxy)-6-fluorobenzyl)-13-(4-chlorobenzyl)-3-cyclobutyl-10-(methoxymethyl)-7,12-dimethyl-1,6,9,12-tetraazabicyclo[11.3.1]heptadecane-2,5,8,11-tetraone], the 50% inhibitory concentration (IC50) is 1.45 nM and the Max % inhibition worked out at 109.6%.

On to `COC[C@@H]1NC(=O)[C@H](C)N(Cc2c(F)cc(Cl)cc2Oc2ccc(-c3cnc(CN(C)C(C)(C)C)n3C)cc2)C(=O)C[C@@H](CC(F)(F)F)C(=O)N2CCC[C@@](Cc3ccc(Cl)cc3)(C2)N(C)C1=O` [Compound 141, (3S, 7S, 10S, 13R)-6-(2-(4-(2-((tert-butyl(methyl)amino)methyl)-1-methyl-1H-imidazol-5-yl)phenoxy)-4-chloro-6-fluorobenzyl)-13-(4-chlorobenzyl)-10-(methoxymethyl)-7,12-dimethyl-3-(2,2,2-trifluoroethyl)-1,6,9,12-tetraazabicyclo[11.3.1]heptadecane-2,5,8,11-tetraone], for which the IC50 came out at 1.78 nM and the Max % inhibition is given as 112.3%.

For the molecule `COC[C@@H]1NC(=O)[C@H](C)N(Cc2c(F)cc(Cl)cc2Oc2ccc(-c3cnc(CNC(C)(C)C)n3C)cc2)C(=O)C[C@@H](CC2CC2)C(=O)N2CCC[C@@](Cc3ccc(Cl)cc3)(C2)NC1=O` [Compound 142, (3R, 7S, 10S, 13R)-6-(2-(4-(2-((tert-butylamino)methyl)-1-methyl-1H-imidazol-5-yl)phenoxy)-4-chloro-6-fluorobenzyl)-13-(4-chlorobenzyl)-3-(cyclopropylmethyl)-10-(methoxymethyl)-7-methyl-1,6,9,12-tetraazabicyclo[11.3.1]heptadecane-2,5,8,11-tetraone], the half-maximal inhibitory concentration (IC50) was determined as 0.91 nM and the Max % inhibition was 111.1%.

On to `C[C@H]1C(=O)N[C@@H](CO)C(=O)N[C@@]2(Cc3ccc(Cl)cc3)CCCN(C2)C(=O)[C@H](CC(F)(F)F)CC(=O)N1Cc1ccc(Cl)cc1Oc1ccc(-c2cnc(CN(C)C(C)(C)C)n2C)cc1` [Compound 143, (3S, 7S, 10S, 13R)-6-(2-(4-(2-((tert-butyl(methyl)amino)methyl)-1-methyl-1H-imidazol-5-yl)phenoxy)-4-chlorobenzyl)-13-(4-chlorobenzyl)-10-(hydroxymethyl)-7-methyl-3-(2,2,2-trifluoroethyl)-1,6,9,12-tetraazabicyclo[11.3.1]heptadecane-2,5,8,11-tetraone], for which the concentration for half-maximal inhibition (IC50) was 1.28 nM and the Max % inhibition amounted to 113.6%.

Turning to `C[C@H]1C(=O)N[C@@H](CO)C(=O)N[C@@]2(Cc3ccc(Cl)cc3)CCCN(C2)C(=O)[C@H](CC2(C)CC2)CC(=O)N1Cc1c(F)cc(Cl)cc1Oc1ccc(-c2cnc(CN(C)C)n2C)cc1` [Compound 144, (3R, 7S, 10S, 13R)-6-(4-chloro-2-(4-(2-((dimethylamino)methyl)-1-methyl-1H-imidazol-5-yl)phenoxy)-6-fluorobenzyl)-13-(4-chlorobenzyl)-10-(hydroxymethyl)-7-methyl-3-((1-methylcyclopropyl)methyl)-1,6,9,12-tetraazabicyclo[11.3.1]heptadecane-2,5,8,11-tetraone], the half-maximal inhibitory concentration (IC50) came out at 3.96 nM and the Max % inhibition is 113.1%.

Turning to `C[C@H]1C(=O)N[C@@H](CO)C(=O)N[C@@]2(Cc3ccc(Cl)cc3)CCCN(C2)C(=O)[C@H](CC2CC2)CC(=O)N1Cc1c(F)cc(Cl)cc1Oc1ccc(-c2cnc(CN(C)C)n2C)cc1` [Compound 145, (3R, 7S, 10S, 13R)-6-(4-chloro-2-(4-(2-((dimethylamino)methyl)-1-methyl-1H-imidazol-5-yl)phenoxy)-6-fluorobenzyl)-13-(4-chlorobenzyl)-3-(cyclopropylmethyl)-10-(hydroxymethyl)-7-methyl-1,6,9,12-tetraazabicyclo[11.3.1]heptadecane-2,5,8,11-tetraone], the IC50 was found to be 0.95 nM and the Max % inhibition is listed as 112.3%.

On to `C[C@H]1C(=O)N[C@@H](CO)C(=O)N[C@@]2(Cc3ccc(Cl)cc3)CCCN(C2)C(=O)[C@H](CC(C)(F)F)CC(=O)N1Cc1c(F)cc(Cl)cc1Oc1ccc(-c2cnc(CN(C)C)n2C)cc1` [Compound 146, (3S, 7S, 10S, 13R)-6-(4-chloro-2-(4-(2-((dimethylamino)methyl)-1-methyl-1H-imidazol-5-yl)phenoxy)-6-fluorobenzyl)-13-(4-chlorobenzyl)-3-(2,2-difluoropropyl)-10-(hydroxymethyl)-7-methyl-1,6,9,12-tetraazabicyclo[11.3.1]heptadecane-2,5,8,11-tetraone], for which the half-inhibitory concentration (IC50) was 0.57 nM and the Max % inhibition came to 111.4%.

Turning to `C[C@H]1C(=O)N[C@@H](CO)C(=O)N[C@@]2(Cc3ccc(Cl)cc3)CCCN(C2)C(=O)[C@H](CC(F)(F)F)CC(=O)N1Cc1ccc(Cl)cc1Oc1ccc(-c2cnc(CNC(C)(C)C)n2C)cc1` [Compound 147, (3S, 7S, 10S, 13R)-6-(2-(4-(2-((tert-butylamino)methyl)-1-methyl-1H-imidazol-5-yl)phenoxy)-4-chlorobenzyl)-13-(4-chlorobenzyl)-10-(hydroxymethyl)-7-methyl-3-(2,2,2-trifluoroethyl)-1,6,9,12-tetraazabicyclo[11.3.1]heptadecane-2,5,8,11-tetraone], the IC50 worked out at 0.72 nM and the Max % inhibition turned out to be 110.6%.

As to `C[C@H]1C(=O)N[C@@H](CO)C(=O)N[C@@]2(Cc3ccc(Cl)cc3)CCCN(C2)C(=O)[C@H](CC2CC2)CC(=O)N1Cc1ccc(Cl)cc1Oc1ccc(-c2cnc(CNC(C)(C)C)n2C)cc1` [Compound 148, (3R, 7S, 10S, 13R)-6-(2-(4-(2-((tert-butylamino)methyl)-1-methyl-1H-imidazol-5-yl)phenoxy)-4-chlorobenzyl)-13-(4-chlorobenzyl)-3-(cyclopropylmethyl)-10-(hydroxymethyl)-7-methyl-1,6,9,12-tetraazabicyclo[11.3.1]heptadecane-2,5,8,11-tetraone], the IC50 was determined as 1.09 nM and the Max % inhibition is reported as 111.9%.

For `COC[C@@H]1NC(=O)[C@H](C)N(Cc2ccc(Cl)cc2Oc2ccc(-c3cnc(CNC(C)(C)C)n3C)cc2)C(=O)C[C@@H](Cc2ccccc2)C(=O)N2CCC[C@@](Cc3ccc(Cl)cc3)(C2)NC1=O` [Compound 149, (3R, 7S, 10S, 13R)-3-benzyl-6-(2-(4-(2-((tert-butylamino)methyl)-1-methyl-1H-imidazol-5-yl)phenoxy)-4-chlorobenzyl)-13-(4-chlorobenzyl)-10-(methoxymethyl)-7-methyl-1,6,9,12-tetraazabicyclo[11.3.1]heptadecane-2,5,8,11-tetraone], the 50% inhibitory concentration (IC50) came out at 0.75 nM and the Max % inhibition turned out to be 111.4%.

In the case of `CNCc1ncc(-c2ccc(Oc3cc(Cl)ccc3CN3C(=O)C[C@@H](Cc4ccccc4)C(=O)N4CCC[C@@](Cc5ccc(Cl)cc5)(C4)NC(=O)[C@H](CO)NC(=O)[C@@H]3C)cc2)n1C` [Compound 150, (3R, 7S, 10S, 13R)-3-benzyl-6-(4-chloro-2-(4-(1-methyl-2-((methylamino)methyl)-1H-imidazol-5-yl)phenoxy)benzyl)-13-(4-chlorobenzyl)-10-(hydroxymethyl)-7-methyl-1,6,9, 12-tetraazabicyclo[11.3.1]heptadecane-2,5,8,11-tetraone], the concentration for half-maximal inhibition (IC50) is 0.85 nM and the Max % inhibition amounted to 105.4%.

As to `C[C@H]1C(=O)N[C@@H](CO)C(=O)N(C)[C@@]2(Cc3ccc(Cl)cc3)CCCN(C2)C(=O)[C@@H](CC(F)(F)F)CC(=O)N1Cc1c(F)cc(Cl)cc1Oc1ccc(-c2cnc(CN(C)C)n2C)cc1` [Compound 151, (3R, 7S, 10S, 13R)-6-(4-chloro-2-(4-(2-((dimethylamino)methyl)-1-methyl-1H-imidazol-5-yl)phenoxy)-6-fluorobenzyl)-13-(4-chlorobenzyl)-10-(hydroxymethyl)-7,12-dimethyl-3-(2,2,2-trifluoroethyl)-1,6,9,12-tetraazabicyclo[11.3.1]heptadecane-2,5,8,11-tetraone], the IC50 came out at 5.69 nM and the Max % inhibition worked out at 107.5%.

With `CCN(Cc1ncc(-c2ccc(Oc3cc(Cl)cc(F)c3CN3C(=O)C[C@@H](CC(F)(F)F)C(=O)N4CCC[C@@](Cc5ccc(Cl)cc5)(C4)NC(=O)[C@H](CO)NC(=O)[C@@H]3C)cc2)n1C)C1(C)CC1` [Compound 152, (3S, 7S, 10S, 13R)-6-(4-chloro-2-(4-(2-((ethyl(1-methylcyclopropyl)amino)methyl)-1-methyl-1H-imidazol-5-yl)phenoxy)-6-fluorobenzyl)-13-(4-chlorobenzyl)-10-(hydroxymethyl)-7-methyl-3-(2,2,2-trifluoroethyl)-1,6,9,12-tetraazabicyclo[11.3.1]heptadecane-2,5,8,11-tetraone], the half-maximal inhibitory concentration (IC50) came to 3.29 nM and the Max % inhibition came out at 103.4%.
